Source: paper PMC12150326 (The Journal of Organic Chemistry, 2025)
Like-named read-outs stand apart in the source and are kept apart here.

How the values were obtained:
Format in all cases: cell-based, human
A549 = assay: Cell-growth inhibition (CellTiter); conditions: read-out: Cell Growth Inhibition GI50 ± SE
Protocol: (§1) Inhibition of cell growth was determined by using standard procedures. Cell lines were obtained from the NCI anticancer drug screen and maintained in DMEM medium supplemented with 10% fetal bovine serum. Growing cells were exposed to serial dilutions of each compound for 3 days. Cell growth was determined with CellTiter Assay Reagent (Promega), and growth parameters, including inhibition of growth, were measured by using the methods specified by the manufacturer.

M14 = assay: Cell-growth inhibition (CellTiter); conditions: read-out: Cell Growth Inhibition GI50 ± SE
Protocol: as §1

PC3 = assay: Cell-growth inhibition (CellTiter); conditions: read-out: Cell Growth Inhibition GI50 ± SE
Protocol: as §1

A498 = test system: A498
Protocol: (§2) (aR)-6, (aS)-6, (aS)-iso -6, and (aR)-iso -6 were submitted to the 60 Cell Screen panel and evaluated at 5 doses (100 μM, 10 μM, 1 μM, 0.1 μM, and 0.01 μM). […] The complete report from this submission is available at the publisher’s Web site as a separate Supporting Information file. For COMPARE analysis, TGI levels of response for (aR)-DM-MTC (6) and (aS)-iso-DM-MTC were compared to those of several established tubulin inhibitors previously tested in the NCI-60 screen.

A549/ATCC = test system: A549/ATCC
Protocol: as §2

EKVX = test system: EKVX
Protocol: as §2

HCT-116 = test system: HCT-116
Protocol: as §2

HCT-15 = test system: HCT-15
Protocol: as §2

HL-60(TB) = test system: HL-60(TB)
Protocol: as §2

HOP-62 = test system: HOP-62
Protocol: as §2

HS 578T = test system: HS 578T
Protocol: as §2

K-562 = test system: K-562
Protocol: as §2

MDA-MB-231/ATCC = test system: MDA-MB-231/ATCC
Protocol: as §2

MDA-MB-435 = test system: MDA-MB-435
Protocol: as §2

MOLT-4 = test system: MOLT-4
Protocol: as §2

NCI-H23 = test system: NCI-H23
Protocol: as §2

NCI-H460 = test system: NCI-H460
Protocol: as §2

NCI/ADR-RES = test system: NCI/ADR-RES
Protocol: as §2

OVCAR-4 = test system: OVCAR-4
Protocol: as §2

OVCAR-8 = test system: OVCAR-8
Protocol: as §2

SF-295 = test system: SF-295
Protocol: as §2

SF-539 = test system: SF-539
Protocol: as §2

SK-MEL-28 = test system: SK-MEL-28
Protocol: as §2

SK-MEL-2 = test system: SK-MEL-2
Protocol: as §2

SK-OV-3 = test system: SK-OV-3
Protocol: as §2

SNB-19 = test system: SNB-19
Protocol: as §2

T-47D = test system: T-47D
Protocol: as §2

COc1cc(C)c(-c2ccc(=O)c(OC)cc2C)c(OC)c1OC (single isomer, unassigned) [(aR)-iso-6]
> -4.00 Molar: Log10GI50 (A498) | Log10LC50 (A498) | Log10TGI (A498) | Log10GI50 (A549/ATCC) | Log10LC50 (A549/ATCC) | Log10TGI (A549/ATCC) | Log10GI50 (EKVX) | Log10LC50 (EKVX) | Log10TGI (EKVX) | Log10GI50 (HCT-116) | Log10LC50 (HCT-116) | Log10TGI (HCT-116) | Log10GI50 (HCT-15) | Log10LC50 (HCT-15) | Log10TGI (HCT-15) | Log10GI50 (HL-60(TB)) | Log10LC50 (HL-60(TB)) | Log10TGI (HL-60(TB)) | Log10GI50 (HOP-62) | Log10LC50 (HOP-62) | Log10TGI (HOP-62) | Log10GI50 (HS 578T) | Log10LC50 (HS 578T) | Log10TGI (HS 578T) | Log10GI50 (K-562) | Log10LC50 (K-562) | Log10TGI (K-562) | Log10GI50 (MDA-MB-231/ATCC) | Log10LC50 (MDA-MB-231/ATCC) | Log10TGI (MDA-MB-231/ATCC) | Log10GI50 (MDA-MB-435) | Log10LC50 (MDA-MB-435) | Log10TGI (MDA-MB-435) | Log10GI50 (MOLT-4) | Log10LC50 (MOLT-4) | Log10TGI (MOLT-4) | Log10GI50 (NCI-H23) | Log10LC50 (NCI-H23) | Log10TGI (NCI-H23) | Log10GI50 (NCI-H460) | Log10LC50 (NCI-H460) | Log10TGI (NCI-H460) | Log10GI50 (NCI/ADR-RES) | Log10LC50 (NCI/ADR-RES) | Log10TGI (NCI/ADR-RES) | Log10GI50 (OVCAR-4) | Log10LC50 (OVCAR-4) | Log10TGI (OVCAR-4) | Log10GI50 (OVCAR-8) | Log10LC50 (OVCAR-8) | Log10TGI (OVCAR-8) | Log10GI50 (SF-295) | Log10LC50 (SF-295) | Log10TGI (SF-295) | Log10GI50 (SF-539) | Log10LC50 (SF-539) | Log10TGI (SF-539) | Log10GI50 (SK-MEL-28) | Log10LC50 (SK-MEL-28) | Log10TGI (SK-MEL-28) | Log10GI50 (SK-MEL-2) | Log10LC50 (SK-MEL-2) | Log10TGI (SK-MEL-2) | Log10GI50 (SK-OV-3) | Log10LC50 (SK-OV-3) | Log10TGI (SK-OV-3) | Log10GI50 (SNB-19) | Log10LC50 (SNB-19) | Log10TGI (SNB-19) | Log10GI50 (T-47D) | Log10LC50 (T-47D) | Log10TGI (T-47D)
> 20000 nM: GI50 (A549; A549, 3 days) | GI50 (M14; M14, 3 days) | GI50 (PC3; PC3, 3 days)

COc1cc2c(c(OC)c1OC)-c1ccc(OC)c(=O)cc1[C@@H](NC(C)=O)CC2 [Colchicine, (−)-Colchicine]
10 ± 1 nM: GI50 (M14; Homo sapiens, M14, 72 h)
40 nM: GI50 (A549; Homo sapiens, A549, 72 h)
20 ± 5 nM: GI50 (PC3; Homo sapiens, PC-3, 72 h)
